Results taken from patent EP0474580B1, “Use of 1-[3-(dimethylamino)propyl]-1-phenylphthalenes for the treatment of cerebrovascular disorders” (priority 1990, dated 1992).
Marks after values point to notes of the source that are not given here.

Tests used:
[1] = Toxicity study, oral administration in rats; type: in vivo; conditions: 350 mg/kg orally, male and female SD rats, observed for one week
Description: In toxicity studies male and female SD rats ranging in weight from 170 g to 200 g were used one day after fasting.

[2] = system: KCN-induced coma; experiment: KCN-induced coma in mice; type: in vivo, mice (Crj:ICR); conditions: for coma time: vs vehicle
Protocol: Male mice (Crj:ICR) weighing 20-30 g were used. The mice were fasted for one day. The drugs, dissolved in saline, were injected intraperitoneally. 30 min after the injection, KCN, dissolved in saline, was injected intravenously at a dose of 1.3 mg/kg. The duration of disappearance of righting reflex was measured as coma time.

[3] = system: vascular dementia (VD, incl. MID); conditions: patients with vascular dementia (VD, incl. MID); Nyth et al. 1989; cited from earlier work
[4] = system: passive avoidance in ischemic gerbils; experiment: Step-down passive avoidance in ischemic gerbils; type: in vivo; conditions: for Step-down latency [log(s)] Mean: ischemic gerbils, testing phase (max. 60 s); for latency of ischemic gerbils (testing phase): vs ischemic control
Protocol: The test employed was step-down passive avoidance in gerbils treated with test compounds prior to occlusion of carotid arteries followed by acquisition trial (training phase).
Test compounds were administered intraperitoneally to gerbils 30 min prior to carotid occlusion or ketamine was administered intraperitoneally 10 min prior to carotid occlusion. The gerbils were anesthetized with 2% halothane contained in a mixture of 70% nitrogen and 30% oxygen. The right and left common carotid arteries were occluded for 5 min. The gerbils were trained for 5 min in a step-down type passive avoidance chamber (16x16x20 cm) two days after induced ischemia. Each gerbil was placed on a safety platform (6x16x20 cm) in the chamber and received a series of mild foot shocks (0.1 mA for 3 s every 6 s), when the gerbil stepped down to a floor made of metal rods. Gerbils were returned to the safety platform for testing 24 h later and their step-down latencies to the grid floor were recorded (max. 60 s). RESULTS

[5] = system: carbon dioxide-induced amnesia; experiment: Carbon dioxide-induced amnesia in rats (one-trial passive avoidance test); type: in vivo, Sprague-Dawley (CD) rats; conditions: for group mean 'step-through' times: oral
Description: The test employed was a one-trial passive avoidance test in rats, using carbon dioxide asphyxiation to induce amnesia. Female Sprague-Dawley (CD) rats (A. Tick & Son Ltd.) in the body weight range 160-180g were used for the study. The one-trial passive avoidance apparatus consisted of a 32 x 32 x 32 cm chamber with opaque walls and a metal grid floor. A 6 cm wide , 25 cm long runway protruded from the front wall of the chamber. The runway was illuminated while the chamber was dark. When placed on the runway, a rat could enter the chamber through a 6 x 6 cm opening. A scrambled footshock could be delivered through the metal grid floor of the chamber. On the first day of the experiment, the rats received three pre-treatment training trials, during which each animal was placed on the end of the runway and the time taken to enter the chamber (the 'step-through' latency) was determined. On the second day of the experiment, groups of 10 animals were treated p.o. with test compound dissolved in saline or with saline. One hour after administration, an acquisition trial was performed. This was similar to a training trial, except that the rats received a footshock of 1.0 mA for 10 s commencing 10 s after entering the chamber. Immediately after the application of the footshock the animals were subjected to amnesic treatment. Amnesic treatment consisted of placing the rats in a box filled with carbon dioxide until respiratory arrest occurred; the rats were then revived by artificial respiration. 24 Hours after the acquisition trial, a single retrieval trial was given to each rat and the time taken to enter the chamber ('step-through' latency) was recorded for each animal.

[6] = system: moderate dementia of Alzheimer's type (AD/SDAT) or multi-infarct dementia (MID); conditions: patients with moderate AD/SDAT or MID; Nyth et al. 1988/1990; cited from earlier work
[7] = system: depression associated with Alzheimer's disease; conditions: C.G. Gottfries, Psychopharmacology, 1988; cited from earlier work
[8] = system: ischemia induced hippocampal neuronal damage; experiment: Ischemia-induced hippocampal death in gerbils; type: in vivo, Mongolian gerbils; conditions: for Survival neurons/mm mean: counted along CA1 after seven days; for protective effect against neuronal lesions: vs vehicle
Protocol: Test compounds were administered intraperitoneally to Male Mongolian gerbils 30 min before carotid occlusion. Carotid occlusion time was 5 min . Seven days after recovery, the animals were killed, brains removed, sectioned and surviving neurons were counted along CA1 in the hippocampus.

[9] = system: ischemia-induced death in bilateral carotid arterial ligation (BCAL); experiment: Brain ischemia-induced death in mice (bilateral carotid arterial ligation); type: in vivo, ICR MICE
Protocol: Male ICR MICE (Charles River) weighing 30 - 40 g were used after they were fasted for 1 day.
[…] Surviving mice were observed over 4 h.

CN(C)CCCC1(c2ccc(F)cc2)OCc2cc(C#N)ccc21 (stereo not drawn) [Citalopram, citalopram]
deaths [1]: no deaths were observed
Coma time (s) Mean ([2]; 1.25 mg/kg i.p. 30 min before KCN 1.3 mg/kg i.v.): 38.5 s
Coma time (s) Mean ([2]; 2.5 mg/kg i.p. 30 min before KCN 1.3 mg/kg i.v.): 33.2 s
Coma time (s) Mean ([2]; 5 mg/kg i.p. 30 min before KCN 1.3 mg/kg i.v.): 35.0 s
Coma time (s) Mean ([2]; 10 mg/kg i.p. 30 min before KCN 1.3 mg/kg i.v.): 27.4 s
coma time ([2]; 10 mg/kg intraperitoneal): significantly reduced coma time
emotional disturbances [3]: no significant improvement
Step-down latency [log(s)] Mean ([4]; 20 mg/kg i.p. 30 min prior to carotid occlusion): 1.386 log(s)
latency of ischemic gerbils (testing phase) ([4]; 20 mg/kg): significantly increased the latency
Latency ([5]; 5 mg/kg p.o. one hour before acquisition trial, CO2 treatment +, retrieval trial 24 h later (max. 180 s)): 31.2 s
Latency (s) ([5]; 10 mg/kg p.o. one hour before acquisition trial, CO2 treatment +, retrieval trial 24 h later (max. 180 s)): 77.2** s
Latency (s) ([5]; 20 mg/kg p.o. one hour before acquisition trial, CO2 treatment +, retrieval trial 24 h later (max. 180 s)): 114.3*** s
group mean 'step-through' times ([5]; 2 highest doses tested (i.e. 20 and 40 mg/kg)): marked and highly significant increase
group mean 'step-through' times ([5]; all doses tested, vs saline-treated control group): dose-related increases
effect on intellectual functions [6]: did not appear to have effect
emotional lability, motivation, confusion, fear-panic, irritation, reduced mood and restlessness [6]: significant improvements
effect against depression associated with Alzheimer's disease [7]: effective
Survival neurons/mm mean ([8]; 20 mg/kg i.p. 30 min before 5 min carotid occlusion): 38.0 neurons/mm
protective effect against neuronal lesions ([8]; 20 mg/kg): weak but non-significant protective effect
Survival neurons/mm mean ([8]; 40 mg/kg i.p. 30 min before 5 min carotid occlusion): 95.8 neurons/mm
protective effect against neuronal lesions ([8]; 40 mg/kg): significant (p < 0.05 ) protective effect

CNC1(c2ccccc2Cl)CCCCC1=O (stereo not drawn) [Ketamine, reference compound]
Step-down latency [log(s)] Mean ([4]; 120 mg/kg i.p. 10 min prior to carotid occlusion): 1.348 log(s)
latency of ischemic gerbils (testing phase) ([4]; 120 mg/kg): significantly increased the latency
Survival neurons/mm mean ([8]; 100 mg/kg i.p. before 5 min carotid occlusion): 174.5 neurons/mm
protective effect against neuronal lesions ([8]; 100 mg/kg): significant (p < 0.01) protective effect

CC(C(O)c1ccc(O)cc1)N1CCC(Cc2ccccc2)CC1 (stereo not drawn) [Ifenprodil]
Survival rate (%) 2 h after BCAL ([9]; 30 mg/kg,p.o., 30 min prior to ligation, 2 h after BCAL): 47** %
Survival rate (%) 4 h after BCAL ([9]; 30 mg/kg,p.o., 30 min prior to ligation, 4 h after BCAL): 20%
ischemia-induced death / survival rate 2 h after ligation ([9]; 30 mg/kg, 2 h after bilateral carotid arterial ligation, vs saline): significantly increased survival rate
ischemia-induced death / survival rate 4 h after ligation ([9]; 30 mg/kg, 4 h after bilateral carotid arterial ligation, vs saline): did not significantly increase survival rate

C1=Cc2cccc(OCC3CNCCO3)c2C1 (stereo not drawn) [Indeloxazine, reference compound]
Coma time (s) Mean ([2]; 20 mg/kg i.p. 30 min before KCN 1.3 mg/kg i.v.): 13.8 s
coma time ([2]; 20 mg/kg): significantly reduced the coma time
Step-down latency [log(s)] Mean ([4]; 40 mg/kg i.p. 30 min prior to carotid occlusion): 1.085 log(s)
latency of ischemic gerbils (testing phase) ([4]; 40 mg/kg): not significantly different

NC(=O)CN1CCCC1=O [Piracetam, reference compound]
Latency (s) ([5]; 300 mg/kg p.o. one hour before acquisition trial, CO2 treatment +, retrieval trial 24 h later (max. 180 s)): 108.8*** s
time of entry ('step-through' latency) compared with vehicle ([5]; oral doses of 40 or 1000 mg/kg, indicates no marked muscle incoordination or CNS effects): no significant differences
'step-through' latencies ([5]; piracetam treatment, dose not given): statistically significantly longer
